Values after ≈ are worked out from the molar mass of the structure shown. Like-named read-outs stand apart in the source and are kept apart here.
Legend:
Type in all cases: cell-based
Mobiluncus spp = assay: Agar dilution MIC (CLSI), Mobiluncus spp vaginal isolate; settings: read-out: Minimal Inhibitory Concentration (MIC)
Peptoniphilus lacrimalis = assay: Agar dilution MIC (CLSI), Peptoniphilus lacrimalis vaginal isolates; settings: for Number of strains with indicated MIC: 20 samples; for MIC: read-out: Minimal Inhibitory Concentration (MIC)
Atopobium vaginae = assay: Agar dilution MIC (CLSI), Atopobium vaginae vaginal isolates; settings: for Number of strains with indicated MIC: 62 samples
Gardnerella vaginalis = assay: Agar dilution MIC (CLSI), Gardnerella vaginalis vaginal isolates; settings: for Number of strains with indicated MIC: 100 samples
Prevotella bivia = assay: Agar dilution MIC (CLSI), Prevotella bivia vaginal isolates; settings: for MIC: Prevotella bivia, read-out: Minimal Inhibitory Concentration (MIC)
[1] = Peptoniphilus lacrimalis, # tested 20
[2] = Fannyhessea vaginae, # tested 62
[3] = Gardnerella vaginalis, # tested 107

For `CO[C@H]1/C=C/O[C@@]2(C)Oc3c(C)c(O)c4c(O)c(c5c(nc6cc(C)ccn65)c4c3C2=O)NC(=O)/C(C)=C\C=C\[C@H](C)[C@H](O)[C@@H](C)[C@@H](O)[C@@H](C)[C@H](OC(C)=O)[C@@H]1C` [Rifaximin], the MIC (Mobiluncus spp) was 0.03 µg/mL (≈ 0.0382 µM), the “MIC Range” value (Peptoniphilus lacrimalis; # tested 20) was 0.00375 to 0.03 µg/mL and the “Number of strains with indicated MIC” value (Peptoniphilus lacrimalis; MIC 0.00375 μg/ml) was 2. For the same compound, the “Number of strains with indicated MIC” value (Peptoniphilus lacrimalis; MIC 0.0075 μg/ml) was 5, the “Number of strains with indicated MIC” value (Peptoniphilus lacrimalis; MIC 0.015 μg/ml) was 12 and the “Number of strains with indicated MIC” value (Peptoniphilus lacrimalis; MIC 0.03 μg/ml) was 1. For the same compound, the MIC (Peptoniphilus lacrimalis; Peptoniphilus lacrimalis, isolate 601028V 27A) was 0.015 µg/mL (≈ 0.0191 µM), the MIC (Peptoniphilus lacrimalis; Peptoniphilus lacrimalis, isolate 601060V 32A) was 0.015 µg/mL (≈ 0.0191 µM) and the MIC (Peptoniphilus lacrimalis; Peptoniphilus lacrimalis, isolate 601078V O) was 0.015 µg/mL (≈ 0.0191 µM). It also gave an MIC (Peptoniphilus lacrimalis; Peptoniphilus lacrimalis, isolate 601084V c) of 0.015 µg/mL (≈ 0.0191 µM), an MIC (Peptoniphilus lacrimalis; Peptoniphilus lacrimalis, isolate 601105V 13) of 0.015 µg/mL (≈ 0.0191 µM) and an MIC (Peptoniphilus lacrimalis; Peptoniphilus lacrimalis, isolate 601139V 17) of 0.015 µg/mL (≈ 0.0191 µM). It also gave an MIC (Peptoniphilus lacrimalis; Peptoniphilus lacrimalis, isolate 601213V 17) of 0.015 µg/mL (≈ 0.0191 µM), an MIC (Peptoniphilus lacrimalis; Peptoniphilus lacrimalis, isolate 601255V 12) of 0.015 µg/mL (≈ 0.0191 µM) and an MIC (Peptoniphilus lacrimalis; Peptoniphilus lacrimalis, isolate 601261V O) of 0.015 µg/mL (≈ 0.0191 µM). It also gave an MIC (Peptoniphilus lacrimalis; Peptoniphilus lacrimalis, isolate 601293V 15) of 0.03 µg/mL (≈ 0.0382 µM), an MIC (Peptoniphilus lacrimalis; Peptoniphilus lacrimalis, isolate 601296V N) of 0.015 µg/mL (≈ 0.0191 µM) and an MIC (Peptoniphilus lacrimalis; Peptoniphilus lacrimalis, isolate 601305V K-1) of 0.0075 µg/mL (≈ 0.00954 µM). The MIC (Peptoniphilus lacrimalis; Peptoniphilus lacrimalis, isolate 601318V E) was 0.0075 µg/mL (≈ 0.00954 µM), the MIC (Peptoniphilus lacrimalis; Peptoniphilus lacrimalis, isolate 601330V H) was 0.015 µg/mL (≈ 0.0191 µM) and the MIC (Peptoniphilus lacrimalis; Peptoniphilus lacrimalis, isolate 601336V 47) was 0.015 µg/mL (≈ 0.0191 µM). For the same compound, the MIC (Peptoniphilus lacrimalis; Peptoniphilus lacrimalis, isolate 601365V 13) was 0.0075 µg/mL (≈ 0.00954 µM), the MIC (Peptoniphilus lacrimalis; Peptoniphilus lacrimalis, isolate 601368V 39) was 0.0075 µg/mL (≈ 0.00954 µM) and the MIC (Peptoniphilus lacrimalis; Peptoniphilus lacrimalis, isolate 601375V E) was 0.0075 µg/mL (≈ 0.00954 µM). For the same compound, the MIC (Peptoniphilus lacrimalis; Peptoniphilus lacrimalis, isolate 601388V B) was 0.00375 µg/mL (≈ 0.00477 µM), the MIC (Peptoniphilus lacrimalis; Peptoniphilus lacrimalis, isolate 601401V I) was 0.00375 µg/mL (≈ 0.00477 µM) and the MIC50 (Peptoniphilus lacrimalis; [1]) was 0.015 µg/mL (≈ 0.0191 µM). The MIC90 (Peptoniphilus lacrimalis; [1]) was 0.015 µg/mL (≈ 0.0191 µM), the “number of Atopobium vaginae strains against which the agent had activity” value (Atopobium vaginae) was 62 strains and the “MIC Range” value (Atopobium vaginae; # tested 62) was 0.00375 to 0.25 µg/mL. For the same compound, the MIC50 (Atopobium vaginae; [2]) was 0.00375 µg/mL (≈ 0.00477 µM), the MIC90 (Atopobium vaginae; [2]) was 0.015 µg/mL (≈ 0.0191 µM) and the “Number of strains with indicated MIC” value (Atopobium vaginae; MIC 0.00375 μg/ml) was 43. For the same compound, the “Number of strains with indicated MIC” value (Atopobium vaginae; MIC 0.0075 μg/ml) was 10, the “Number of strains with indicated MIC” value (Atopobium vaginae; MIC 0.015 μg/ml) was 5 and the “Number of strains with indicated MIC” value (Atopobium vaginae; MIC 0.06 μg/ml) was 1. The “share of G vaginalis strains against which the agent had activity” value (Gardnerella vaginalis) was about 90%, the MIC50 (Gardnerella vaginalis; [3]) was 2 µg/mL (≈ 2.54 µM) and the MIC90 (Gardnerella vaginalis; [3]) was over 128 µg/mL. The “Number of strains with indicated MIC” value (Gardnerella vaginalis; MIC 8 μg/ml) was 3, the “Number of strains with indicated MIC” value (Gardnerella vaginalis; MIC >[…]) was 11 and the “MIC Range” value (Prevotella bivia; # tested 34) was 0.125 to 1 µg/mL. For the same compound, the MIC (Prevotella bivia; isolate 601096 25) was 0.125 µg/mL (≈ 0.159 µM), the MIC (Prevotella bivia; isolate 601166 M) was 0.125 µg/mL (≈ 0.159 µM) and the MIC (Prevotella bivia; isolate 601202 21) was 0.5 µg/mL (≈ 0.636 µM). The MIC (Prevotella bivia; isolate 601203 5) was 0.125 µg/mL (≈ 0.159 µM), the MIC (Prevotella bivia; isolate 601209 A1) was 0.125 µg/mL (≈ 0.159 µM) and the MIC (Prevotella bivia; isolate 601212 9) was 0.125 µg/mL (≈ 0.159 µM). It also gave an MIC (Prevotella bivia; isolate 601213 9A) of 0.25 µg/mL (≈ 0.318 µM), an MIC (Prevotella bivia; isolate 601214 B) of 0.25 µg/mL (≈ 0.318 µM) and an MIC (Prevotella bivia; isolate 601241 13) of 0.125 µg/mL (≈ 0.159 µM). It also gave an MIC (Prevotella bivia; isolate 601243 15) of 0.125 µg/mL (≈ 0.159 µM), an MIC (Prevotella bivia; isolate 601255 10) of 0.25 µg/mL (≈ 0.318 µM) and an MIC (Prevotella bivia; isolate 601261 C) of 0.25 µg/mL (≈ 0.318 µM). It also gave an MIC (Prevotella bivia; isolate 601283 20) of 0.25 µg/mL (≈ 0.318 µM), an MIC (Prevotella bivia; isolate 601285 14) of 0.125 µg/mL (≈ 0.159 µM) and an MIC (Prevotella bivia; isolate 601293 22) of 0.25 µg/mL (≈ 0.318 µM).

Reference: patent US20160038468A1 (priority 2013, published 2016)
